Assay results published in publication PMC8849072, “Sudapyridine (WX-081), a Novel Compound against Mycobacterium tuberculosis” (Microbiology Spectrum, 2022).
≈ marks a conversion by molar mass, not a printed value.

Columns and labels:
[1] = test system: M. tuberculosis clinical strain 13946; test: MIC by microplate alamarBlue assay (MABA); format: cell-based, Mycobacterium tuberculosis; conditions: strain 13946: resistant to INH SM RFP EMB RBT PAS OFX; for MIC: Mycobacterium tuberculosis
[2] = test system: M. tuberculosis clinical strain 14550; test: MIC by microplate alamarBlue assay (MABA); format: cell-based, Mycobacterium tuberculosis; conditions: strain 14550: resistant to INH SM RFP EMB KM CPM AK 1321 PAS; for MIC: Mycobacterium tuberculosis
[3] = test system: M. tuberculosis clinical strain 14822; test: MIC by microplate alamarBlue assay (MABA); format: cell-based, Mycobacterium tuberculosis; conditions: strain 14822: resistant to INH SM RFP EMB KM RBT AK 1321 PAS; for MIC: Mycobacterium tuberculosis
[4] = test system: M. tuberculosis clinical strain 14158; test: MIC by microplate alamarBlue assay (MABA); format: cell-based, Mycobacterium tuberculosis; conditions: strain 14158: resistant to INH SM RFP EMB AK 1321 PAS OFX; for MIC: Mycobacterium tuberculosis
[5] = test system: M. tuberculosis clinical strain 14441; test: MIC by microplate alamarBlue assay (MABA); format: cell-based, Mycobacterium tuberculosis; conditions: strain 14441: resistant to INH RFP RBT AK CPM 1321 OFX LFX; for MIC: Mycobacterium tuberculosis
[6] = test system: M. tuberculosis clinical strain 14470; test: MIC by microplate alamarBlue assay (MABA); format: cell-based, Mycobacterium tuberculosis; conditions: strain 14470: resistant to INH SM RFP EMB KM RBT AK CPM 1321 PAS; for MIC: Mycobacterium tuberculosis
[7] = test system: M. tuberculosis clinical strain 13908; test: MIC by microplate alamarBlue assay (MABA); format: cell-based, Mycobacterium tuberculosis; conditions: strain 13908: resistant to INH RFP EMB 1321 PAS OFX LFX; for MIC: Mycobacterium tuberculosis
[8] = test system: M. tuberculosis clinical strain 14282; test: MIC by microplate alamarBlue assay (MABA); format: cell-based, Mycobacterium tuberculosis; conditions: strain 14282: resistant to INH SM RFP EMB RBT 1321 OFX LFX; for MIC: Mycobacterium tuberculosis
[9] = test system: M. tuberculosis clinical strain 15321; test: MIC by microplate alamarBlue assay (MABA); format: cell-based, Mycobacterium tuberculosis; conditions: strain 15321: resistant to INH RFP EMB AK ETO OFX RFT; for MIC: Mycobacterium tuberculosis
[10] = test system: M. tuberculosis clinical strain 14619; test: MIC by microplate alamarBlue assay (MABA); format: cell-based, Mycobacterium tuberculosis; conditions: strain 14619: resistant to INH RFP KM CPM AK 1321 PAS; for MIC: Mycobacterium tuberculosis
[11] = test system: M. tuberculosis clinical strain 16030; test: MIC by microplate alamarBlue assay (MABA); format: cell-based, Mycobacterium tuberculosis; conditions: strain 16030: resistant to INH RFP RFT; for MIC: Mycobacterium tuberculosis
[12] = test system: M. tuberculosis clinical strain 14862; test: MIC by microplate alamarBlue assay (MABA); format: cell-based, Mycobacterium tuberculosis; conditions: strain 14862: resistant to INH SM RFP EMB 1321 CPM PAS; for MIC: Mycobacterium tuberculosis
[13] = test system: M. tuberculosis clinical strain 16825; test: MIC by microplate alamarBlue assay (MABA); format: cell-based, Mycobacterium tuberculosis; conditions: strain 16825: resistant to INH RFP AK RFT; for MIC: Mycobacterium tuberculosis
[14] = test system: M. tuberculosis clinical strain 15833; test: MIC by microplate alamarBlue assay (MABA); format: cell-based, Mycobacterium tuberculosis; conditions: strain 15833: resistant to INH RFP RFT; for MIC: Mycobacterium tuberculosis
[15] = test system: M. tuberculosis clinical strain 14092; test: MIC by microplate alamarBlue assay (MABA); format: cell-based, Mycobacterium tuberculosis; conditions: strain 14092: resistant to INH SM RFP; for MIC: Mycobacterium tuberculosis
[16] = test system: M. tuberculosis clinical strain 15321; test: MBC determination (CFU-based); conditions: strain 15321: resistant to INH RFP EMB AK ETO OFLX RFT; 7 days incubation, 3 log10 CFU decrease
[17] = test system: M. tuberculosis clinical strain 14441; test: MBC determination (CFU-based); conditions: strain 14441: resistant to INH RFP RBT AK CPM 1321 OFLX LVFX; 7 days incubation, 3 log10 CFU decrease
[18] = test system: M. tuberculosis clinical strain 14619; test: MBC determination (CFU-based); conditions: strain 14619: resistant to INH RFP KM CPM AK 1321 PAS; 7 days incubation, 3 log10 CFU decrease
[19] = test system: M. tuberculosis clinical strain 15833; test: MBC determination (CFU-based); conditions: strain 15833: resistant to INH RFP RFT; 7 days incubation, 3 log10 CFU decrease

| SMILES | MIC [1] [µg/mL] | MIC [2] [µg/mL] | MIC [3] [µg/mL] | MIC [4] [µg/mL] | MIC [5] [µg/mL] | MIC [6] [µg/mL] | MIC [7] [µg/mL] | MIC [8] [µg/mL] | MIC [9] [µg/mL] | MIC [10] [µg/mL] | MIC [11] [µg/mL] | MIC [12] [µg/mL] | MIC [13] [µg/mL] | MIC [14] [µg/mL] | MIC [15] [µg/mL] | MBCs [16] [µg/mL] | MBCs [17] [µg/mL] | MBCs [18] [µg/mL] | MBCs [19] [µg/mL] | other results |
| --- | --- | --- | --- | --- | --- | --- | --- | --- | --- | --- | --- | --- | --- | --- | --- | --- | --- | --- | --- | --- |
| COc1nc2ccc(Br)cc2cc1[C@@H](c1ccccc1)[C@@](O)(CCN(C)C)c1cccc2ccccc12 [BDQ, bedaquiline] | 0.021 (≈ 0.0378 µM) | 0.051 (≈ 0.0918 µM) | 0.111 (≈ 0.2 µM) | 0.03 (≈ 0.054 µM) | 0.214 (≈ 0.385 µM) | 0.468 (≈ 0.842 µM) | 0.266 (≈ 0.479 µM) | 0.053 (≈ 0.0954 µM) | 0.028 (≈ 0.0504 µM) | 0.052 (≈ 0.0936 µM) | 0.017 (≈ 0.0306 µM) | 0.006 (≈ 0.0108 µM) | 0.06 (≈ 0.108 µM) | 0.09 (≈ 0.162 µM) | 0.048 (≈ 0.0864 µM) | >0.313 | >2.5 | 0.156 | >0.32 |  |
| NNC(=O)c1ccncc1 [INH, isoniazid] | 1.81 (≈ 13.2 µM) | 2.25 (≈ 16.4 µM) | > 40 | > 40 | > 40 | > 40 | 3.01 (≈ 21.9 µM) | 2.35 (≈ 17.1 µM) | 1.04 (≈ 7.56 µM) | 4.38 (≈ 31.9 µM) | 2.45 (≈ 17.9 µM) | 2.17 (≈ 15.8 µM) | 2.37 (≈ 17.3 µM) | 4.5 (≈ 32.8 µM) | 2.41 (≈ 17.5 µM) |  |  |  |  |  |
| NC[C@H]1O[C@H](O[C@H]2[C@H](O)[C@@H](O[C@H]3O[C@H](CO)[C@@H](O)[C@H](N)[C@H]3O)[C@H](N)C[C@@H]2N)[C@H](O)[C@@H](O)[C@@H]1O [KM, kanamycin] |  |  |  |  |  |  |  |  |  |  |  |  |  |  |  |  |  |  |  | MICs [1]: 0.788 µg/mL; MICs [2]: 1.186 µg/mL; MICs [3]: >40 µg/mL; MICs [4]: >40 µg/mL; MICs [5]: >40 µg/mL; MICs [6]: 0.437 µg/mL; MICs [7]: 1.151 µg/mL; MICs [8]: 1.199 µg/mL; MICs [9]: >40 µg/mL; MICs [10]: 1.195 µg/mL; MICs [11]: 1.072 µg/mL; MICs [12]: 1.243 µg/mL; MICs [13]: >40 µg/mL; MICs [14]: 2.302 µg/mL; MICs [15]: 1.199 µg/mL |
| CO[C@H]1/C=C/O[C@@]2(C)Oc3c(C)c(O)c4c(O)c(c(/C=N/N5CCN(C)CC5)c(O)c4c3C2=O)NC(=O)/C(C)=C\C=C\[C@H](C)[C@H](O)[C@@H](C)[C@@H](O)[C@@H](C)[C@H](OC(C)=O)[C@@H]1C [RFP, rifampicin] | > 40 | > 40 | > 40 | > 40 | > 40 | > 40 | 6.9 (≈ 8.39 µM) | > 40 | > 40 | > 40 | > 40 | 15.2 (≈ 18.5 µM) | > 40 | > 40 | > 40 |  |  |  |  |  |
| COc1ncc(-c2ccc(Cl)cc2)cc1[C@@H](c1ccccc1)[C@@](O)(CCN(C)C)c1cccc2ccccc12 [WX-081, sudapyridine] | 0.098 (≈ 0.182 µM) | 0.17 (≈ 0.317 µM) | 0.48 (≈ 0.894 µM) | 0.111 (≈ 0.207 µM) | 0.465 (≈ 0.866 µM) | 0.966 (≈ 1.8 µM) | 0.849 (≈ 1.58 µM) | 0.113 (≈ 0.21 µM) | 0.109 (≈ 0.203 µM) | 0.3 (≈ 0.559 µM) | 0.057 (≈ 0.106 µM) | 0.026 (≈ 0.0484 µM) | 0.226 (≈ 0.421 µM) | 0.236 (≈ 0.439 µM) | 0.235 (≈ 0.438 µM) | >1.25 | >5 | 0.313 | >1.25 |  |
